Drawing on patent US20260049088A1, “TRICYCLIC HETEROCYCLIC DERIVATIVES, COMPOSITIONS AND USES THEREOF” (Danatlas Pharmaceuticals Co., Ltd., priority 2023, published 2026), this text covers IC50 for 23 compounds.

Some results are limits rather than exact numbers.

The target in this assay is T1, hPARG (Homo sapiens, UniProt Q86W56).
T1 construct: made in house; host or cells: E. coli
T1 sequence (Q86W56 whole entry): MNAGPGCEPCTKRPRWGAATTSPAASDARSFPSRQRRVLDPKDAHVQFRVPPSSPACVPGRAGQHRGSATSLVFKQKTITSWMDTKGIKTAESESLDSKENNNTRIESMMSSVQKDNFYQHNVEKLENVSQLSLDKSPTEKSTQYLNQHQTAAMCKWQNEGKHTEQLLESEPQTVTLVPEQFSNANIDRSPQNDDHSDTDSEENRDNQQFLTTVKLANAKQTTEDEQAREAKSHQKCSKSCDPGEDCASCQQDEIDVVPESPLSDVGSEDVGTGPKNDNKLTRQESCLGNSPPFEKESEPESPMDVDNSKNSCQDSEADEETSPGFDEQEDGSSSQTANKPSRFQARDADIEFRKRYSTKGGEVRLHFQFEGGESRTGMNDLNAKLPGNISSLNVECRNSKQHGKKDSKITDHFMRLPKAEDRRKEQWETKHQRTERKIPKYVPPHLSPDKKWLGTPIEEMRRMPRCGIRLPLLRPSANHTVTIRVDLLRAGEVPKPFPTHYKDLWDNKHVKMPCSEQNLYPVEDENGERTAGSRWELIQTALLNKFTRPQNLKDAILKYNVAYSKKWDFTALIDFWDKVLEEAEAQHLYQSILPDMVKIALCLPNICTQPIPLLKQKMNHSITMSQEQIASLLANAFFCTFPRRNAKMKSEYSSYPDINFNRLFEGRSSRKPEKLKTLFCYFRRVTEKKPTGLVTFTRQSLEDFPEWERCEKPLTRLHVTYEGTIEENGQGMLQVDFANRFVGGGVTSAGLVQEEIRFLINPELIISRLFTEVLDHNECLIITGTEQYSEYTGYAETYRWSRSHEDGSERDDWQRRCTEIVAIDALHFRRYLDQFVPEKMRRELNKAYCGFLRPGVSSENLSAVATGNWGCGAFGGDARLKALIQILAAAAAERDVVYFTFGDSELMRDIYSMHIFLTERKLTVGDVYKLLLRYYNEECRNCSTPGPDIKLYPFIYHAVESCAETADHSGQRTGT
Nature of the assay: PARG enzymatic activity assay (HTRF). Particulars: C-terminal His6-tag hPARG 65 pM, biotinylated-NAD ribosylated PARP1 substrate 8 nM. The class given is biochemical. As for the experimental part: HTRF assay was used to measure the ability of compounds to inhibit the activity of […] in vitro. C-terminal His6—tag PARG expressed in E. coli was purified and stored at −80° C. in aliquots. Assay measurements were performed with 1×buffer comprising 50 mM Tris pH 7.4, 0.1 mg/mL BSA, 3 mM EDTA, 0.4 mM EGTA, 1 mM DTT, 50 mM KCl and 0.01% Tween 20. Compounds dissolved in DMSO were plated into a 384-well assay plate (PerkinElmer, Catalog #: 6008280) in duplicate using a dispenser (Labcyte, Echo 665), and tested on a 10-point 4-fold serial dilution. Add 5 μL Enzyme mix [hPARG (C-terminal His6—tag, 4.2 μM), 65 pM final] to the test wells. The plates were covered and left to incubate for 60 minutes at RT before the addition of 5 μL substrate mix [biotinylated-NAD ribosylated PARP1 (6.1 μM), 8 nM final] to initiate reaction. After incubating 10 minutes at RT, add 2.5 μL Streptavidin-Eu cryptate (Cisbio, Catalog #: 610SAKLA) and 2.5 μL Mab anti 6HIS-XL665 (Cisbio, Catalog #: 61HISXLA) to the plate, and incubate for 60 minutes at RT. Read on a multimode plate reader (PerkinElmer, Envision 2015) in time-resolved fluorescence (TRF) mode, with excitation at 337 nm and emission at both 620 nm and 665 nm. Average HTRF signal of high control (Wells with 1% DMSO) was calculated and as Vehicle Control (VC). Average HTRF signal of low control (no Enzyme) was calculated and as Positive control (PC).
IC50 values were determined by fitting the data to the standard 4 parameters with Hill Slope using GraphPad Prism software.
One may read the IC50 as the concentration that gives 50% inhibition. Lower therefore signals greater potency. Compound `CCN(CC)[C@@H]1CCN(c2ncnc3c2c2ccc(S(=O)(=O)NC4(C#N)CC4)cc2n3-c2nnc(C(F)F)s2)CC1(F)F` [Example 51, (R)-N-(1-Cyanocyclopropyl)-4-(4-(diethylamino)-3,3-difluoropiperidin-1-yl)-9-(5-(difluoromethyl)-1,3,4-thiadiazol-2-yl)-9H-pyrimido[4,5-b]indole-7-sulfonamide] gave an IC50 of at most 100 nM. Under `CCN(CC)[C@H]1CCN(c2ncnc3c2c2ccc(S(=O)(=O)NC4(C#N)CC4)cc2n3-c2nnc(C(F)F)s2)C[C@H]1F` [Example 34, N-(1-Cyanocyclopropyl)-4-((3R,4S)-4-(diethylamino)-3-fluoropiperidin-1-yl)-9-(5-(difluoromethyl)-1,3,4-thiadiazol-2-yl)-9H-pyrimido[4,5-b]indole-7-sulfonamide] stands at most 100 nM. The value for `N#CC1(NS(=O)(=O)c2ccc3c4c(OCCn5cccn5)ncnc4n(-c4nnc(C(F)F)s4)c3c2)CC1` [Example 12, 4-(2-(1H-Pyrazol-1-yl)ethoxy)-N-(1-cyanocyclopropyl)-9-(5-(difluoromethyl)-1,3,4-thiadiazol-2-yl)-9H-pyrimido[4,5-b]indole-7-sulfonamide] was at most 100 nM; that for `CN1CCOCC1COc1ncnc2c1c1ccc(S(=O)(=O)NC3(C#N)CC3)cc1n2-c1nnc(C(F)F)s1` (centres unmarked) [Example 90, N-(1-Cyanocyclopropyl)-9-(5-(difluoromethyl)-1,3,4-thiadiazol-2-yl)-4-((4-methylmorpholin-3-yl)methoxy)-9H-pyrimido[4,5-b]indole-7-sulfonamide] was 100 to 1000 nM. The compound `CCSc1ncnc2c1c1ccc(S(=O)(=O)NC3(C#N)CC3)cc1n2-c1nnc(C(F)F)s1` [Example 26, N-(1-Cyanocyclopropyl)-9-(5-(difluoromethyl)-1,3,4-thiadiazol-2-yl)-4-(ethylthio)-9H-pyrimido[4,5-b]indole-7-sulfonamide] returned an IC50 above 1000 nM. `N#CC1(NS(=O)(=O)c2ccc3c4c(N5CCO[C@@H](CO)C5)ncnc4n(-c4nnc(C(F)F)s4)c3c2)CC1` [Example 42, (R)-N-(1-Cyanocyclopropyl)-9-(5-(difluoromethyl)-1,3,4-thiadiazol-2-yl)-4-(2-(hydroxymethyl)morpholino)-9H-pyrimido[4,5-b]indole-7-sulfonamide] had an IC50 of at most 100 nM.

Take `CN(CCn1ccnc1)c1ncnc2c1c1ccc(S(=O)(=O)NC3(C#N)CC3)cc1n2-c1nnc(C(F)F)s1` [Example 59, 4-((2-(1H-Imidazol-1-yl)ethyl)(methyl)amino)-N-(1-cyanocyclopropyl)-9-(5-(difluoromethyl)-1,3,4-thiadiazol-2-yl)-9H-pyrimido[4,5-b]indole-7-sulfonamide]: the IC50 was in the range of 100 to 1000 nM. The compound `CCN(CC)C1C[C@H]2C[C@@H]1CN2c1ncnc2c1c1ccc(S(=O)(=O)NC3(C#N)CC3)cc1n2-c1nnc(C(F)F)s1` (stereo partly drawn) [Example 39, N-(1-Cyanocyclopropyl)-4-((1R,4R)-5-(diethylamino)-2-azabicyclo[2.2.1]heptan-2-yl)-9-(5-(difluoromethyl)-1,3,4-thiadiazol-2-yl)-9H-pyrimido[4,5-b]indole-7-sulfonamide] had an IC50 of at most 100 nM. In turn, `CN1CCN(c2ncnc3c2c2ccc(S(=O)(=O)NC4(C#N)CC4)cc2n3-c2nnc(C(F)F)s2)CC12CC2` [Example 48, N-(1-Cyanocyclopropyl)-9-(5-(difluoromethyl)-1,3,4-thiadiazol-2-yl)-4-(4-methyl-4,7-diazaspiro[2.5]octan-7-yl)-9H-pyrimido[4,5-b]indole-7-sulfonamide] displayed an IC50 of at most 100 nM. Under `CN(C[C@@H]1CCOC1)c1ncnc2c1c1ccc(S(=O)(=O)NC3(C#N)CC3)cc1n2-c1nnc(C(F)F)s1` [Example 56, (S)-N-(1-Cyanocyclopropyl)-9-(5-(difluoromethyl)-1,3,4-thiadiazol-2-yl)-4-(methyl((tetrahydrofuran-3-yl)methyl)amino)-9H-pyrimido[4,5-b]indole-7-sulfonamide] stands at most 100 nM. `N#CC1(NS(=O)(=O)c2ccc3c4c(OCCCCN5CCOCC5)ncnc4n(-c4nnc(C(F)F)s4)c3c2)CC1` [Example 3, N-(1-Cyanocyclopropyl)-9-(5-(difluoromethyl)-1,3,4-thiadiazol-2-yl)-4-(4-morpholinobutoxy)-9H-pyrimido[4,5-b]indole-7-sulfonamide]: the IC50 is at most 100 nM. The value for `N#CC1(NS(=O)(=O)c2ccc3c4c(NCC5COCCO5)ncnc4n(-c4nnc(C(F)F)s4)c3c2)CC1` (centres unmarked) [Example 79, 4-(((1,4-Dioxan-2-yl)methyl)amino)-N-(1-cyanocyclopropyl)-9-(5-(difluoromethyl)-1,3,4-thiadiazol-2-yl)-9H-pyrimido[4,5-b]indole-7-sulfonamide] was at most 100 nM; that for `CN(CCCN1CCOCC1)c1ncnc2c1c1ccc(S(=O)(=O)NC3(C#N)CC3)cc1n2-c1nnc(C(F)F)s1` [Example 17, N-(1-Cyanocyclopropyl)-9-(5-(difluoromethyl)-1,3,4-thiadiazol-2-yl)-4-(methyl(3-morpholinopropyl)amino)-9H-pyrimido[4,5-b]indole-7-sulfonamide] was at most 100 nM; that for `N#CC1(NS(=O)(=O)c2ccc3c4c(N5CCC(N6CCC(F)(F)CC6)[C@@H](F)C5)ncnc4n(-c4nnc(C(F)F)s4)c3c2)CC1` (stereo partly drawn) [Example 36, N-(1-Cyanocyclopropyl)-9-(5-(difluoromethyl)-1,3,4-thiadiazol-2-yl)-4-((3′S)-3′,4,4-trifluoro-[1,4′-bipiperidin]-1′-yl)-9H-pyrimido[4,5-b]indole-7-sulfonamide] was at most 100 nM. Consider `CN(C[C@H]1CCOC1)c1ncnc2c1c1ccc(S(=O)(=O)NC3(C#N)CC3)cc1n2-c1nnc(C(F)F)s1` [Example 57, (R)-N-(1-Cyanocyclopropyl)-9-(5-(difluoromethyl)-1,3,4-thiadiazol-2-yl)-4-(methyl((tetrahydrofuran-3-yl)methyl)amino)-9H-pyrimido[4,5-b]indole-7-sulfonamide], for which the IC50 is at most 100 nM.

The compound `CCN[C@@H]1CCN(c2ncnc3c2c2ccc(S(=O)(=O)NC4(C#N)CC4)cc2n3-c2nnc(C(F)F)s2)C[C@@H]1F` [Example 93, N-(1-Cyanocyclopropyl)-9-(5-(difluoromethyl)-1,3,4-thiadiazol-2-yl)-4-((3S,4R)-4-(ethylamino)-3-fluoropiperidin-1-yl)-9H-pyrimido[4,5-b]indole-7-sulfonamide] registered a concentration for half-maximal inhibition (IC50) of at most 100 nM.

The compound `N#CC1(NS(=O)(=O)c2ccc3c4c(SCCO)ncnc4n(-c4nnc(C(F)F)s4)c3c2)CC1` [Example 27, N-(1-Cyanocyclopropyl)-9-(5-(difluoromethyl)-1,3,4-thiadiazol-2-yl)-4-((2-hydroxyethyl)thio)-9H-pyrimido[4,5-b]indole-7-sulfonamide] registered an IC50 of at most 100 nM. For `N#CC1(NS(=O)(=O)c2ccc3c4c(OCCN5CCOCC5)ncnc4n(-c4nnc(C(F)F)s4)c3c2)CC1` [Example 1, N-(1-Cyanocyclopropyl)-9-(5-(difluoromethyl)-1,3,4-thiadiazol-2-yl)-4-(2-morpholinoethoxy)-9H-pyrimido[4,5-b]indole-7-sulfonamide], the 50% inhibitory concentration (IC50) was at most 100 nM. The value for `Cc1nc(C)n(CCN(C)c2ncnc3c2c2ccc(S(=O)(=O)NC4(C#N)CC4)cc2n3-c2nnc(C(F)F)s2)n1` [Example 71, N-(1-Cyanocyclopropyl)-9-(5-(difluoromethyl)-1,3,4-thiadiazol-2-yl)-4-((2-(3,5-dimethyl-1H-1,2,4-triazol-1-yl)ethyl)(methyl)amino)-9H-pyrimido[4,5-b]indole-7-sulfonamide] was above 1000 nM.

`CN1C[C@@H]2C[C@H]1CN2c1ncnc2c1c1ccc(S(=O)(=O)NC3(C#N)CC3)cc1n2-c1nnc(C(F)F)s1` [Example 31, N-(1-Cyanocyclopropyl)-9-(5-(difluoromethyl)-1,3,4-thiadiazol-2-yl)-4-((1S,4S)-5-methyl-2,5-diazabicyclo[2.2.1]heptan-2-yl)-9H-pyrimido[4,5-b]indole-7-sulfonamide] returned a concentration for half-maximal inhibition (IC50) of at most 100 nM. Under `CC(C)(O)C#Cc1ncnc2c1c1ccc(S(=O)(=O)NC3(C#N)CC3)cc1n2-c1nnc(C(F)F)s1` [Example 88, N-(1-Cyanocyclopropyl)-9-(5-(difluoromethyl)-1,3,4-thiadiazol-2-yl)-4-(3-hydroxy-3-methylbut-1-yn-1-yl)-9H-pyrimido[4,5-b]indole-7-sulfonamide] stands at most 100 nM. Regarding `N#CC1(NS(=O)(=O)c2ccc3c4c(/C=C/CN5CCOCC5)ncnc4n(-c4nnc(C(F)F)s4)c3c2)CC1` [Example 85, (E)-N-(1-Cyanocyclopropyl)-9-(5-(difluoromethyl)-1,3,4-thiadiazol-2-yl)-4-(3-morpholinoprop-1-en-1-yl)-9H-pyrimido[4,5-b]indole-7-sulfonamide], the 50% inhibitory concentration (IC50) was at most 100 nM. Consider `N#CC1(NS(=O)(=O)c2ccc3c4c(OCC(=O)N5CCOCC5)ncnc4n(-c4nnc(C(F)F)s4)c3c2)CC1` [Example 11, N-(1-Cyanocyclopropyl)-9-(5-(difluoromethyl)-1,3,4-thiadiazol-2-yl)-4-(2-morpholino-2-oxoethoxy)-9H-pyrimido[4,5-b]indole-7-sulfonamide], for which the IC50 is at most 100 nM.
